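Following 48 hours of exposure in 96-well plates, responses at five concentrations were used to interpolate endpoints linearly. TGI: total growth inhibition.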
Tests used:
Experiment in all cases: NCI tumour cell line growth inhibition, 48 h
OVCAR-5 ovarian = tested on: OVCAR-5 ovarian
RXF 393 renal = tested on: RXF 393 renal
UO-31 renal = tested on: UO-31 renal
SNB-78 CNS = tested on: SNB-78 CNS
K-562 leukemia = tested on: K-562 leukemia
DLD-1 colon = tested on: DLD-1 colon
SNB-75 CNS = tested on: SNB-75 CNS
HOP-62 NSCLC = tested on: HOP-62 NSCLC
HL-60(TB) leukemia = tested on: HL-60(TB) leukemia
A549 NSCLC = tested on: A549 NSCLC
HOP-18 NSCLC = tested on: HOP-18 NSCLC
CCRF-CEM leukemia = tested on: CCRF-CEM leukemia
SK-OV-3 ovarian = tested on: SK-OV-3 ovarian
M19-MEL melanoma = tested on: M19-MEL melanoma
SN12C renal = tested on: SN12C renal
HCC-2998 colon = tested on: HCC-2998 colon
NCI-H460 lung = tested on: NCI-H460 lung
HT29 colon = tested on: HT29 colon
SF-268 CNS = tested on: SF-268 CNS
SF-295 CNS = tested on: SF-295 CNS
UACC-62 melanoma = tested on: UACC-62 melanoma
HCT-116 colon = tested on: HCT-116 colon
UACC-257 melanoma = tested on: UACC-257 melanoma
MOLT-4 leukemia = tested on: MOLT-4 leukemia
TK-10 renal = tested on: TK-10 renal
RPMI-8226 leukemia = tested on: RPMI-8226 leukemia
COLO 205 colon = tested on: COLO 205 colon
HCT-15 colon = tested on: HCT-15 colon
786-0 renal = tested on: 786-0 renal
HOP-92 NSCLC = tested on: HOP-92 NSCLC
MALME-3M melanoma = tested on: MALME-3M melanoma
EKVX NSCLC = tested on: EKVX NSCLC
M14 melanoma = tested on: M14 melanoma
CAKI-1 renal = tested on: CAKI-1 renal
U251 CNS = tested on: U251 CNS
OVCAR-4 ovarian = tested on: OVCAR-4 ovarian
SK-MEL-2 melanoma = tested on: SK-MEL-2 melanoma
SNB-19 CNS = tested on: SNB-19 CNS
LOX IMVI melanoma = tested on: LOX IMVI melanoma
SF-539 CNS = tested on: SF-539 CNS
ACHN renal = tested on: ACHN renal
KM20L2 colon = tested on: KM20L2 colon
OVCAR-3 ovarian = tested on: OVCAR-3 ovarian
OVCAR-8 ovarian = tested on: OVCAR-8 ovarian
DMS 273 small cell lung = tested on: DMS 273 small cell lung
LXFL 529 NSCLC = tested on: LXFL 529 NSCLC
DMS 114 small cell lung = tested on: DMS 114 small cell lung
SK-MEL-5 melanoma = tested on: SK-MEL-5 melanoma
RXF-631 renal = tested on: RXF-631 renal
KM12 colon = tested on: KM12 colon
SW-620 colon = tested on: SW-620 colon
IGROV1 ovarian = tested on: IGROV1 ovarian
XF 498 CNS = tested on: XF 498 CNS
DU-145 prostate = tested on: DU-145 prostate
T-47D breast = tested on: T-47D breast
MDA-MB-231 breast = tested on: MDA-MB-231 breast
MDA-N = tested on: MDA-N
SK-MEL-28 melanoma = tested on: SK-MEL-28 melanoma
NCI-H23 lung = tested on: NCI-H23 lung
BT-549 breast = tested on: BT-549 breast
MCF7 breast = tested on: MCF7 breast
PC-3 prostate = tested on: PC-3 prostate
SR leukemia = tested on: SR leukemia
MDA-MB-435 = tested on: MDA-MB-435
A498 renal = tested on: A498 renal
NCI-H226 lung = tested on: NCI-H226 lung
HS 578T breast = tested on: HS 578T breast
NCI/ADR-RES ovarian = tested on: NCI/ADR-RES ovarian
NCI-H522 lung = tested on: NCI-H522 lung

For `COc1cc(/C=N\O[Si](C)(C)C(C)(C)C)ccc1O[Si](C)(C)C(C)(C)C`, the TGI (OVCAR-5 ovarian) was 68.7 µM, the TGI (RXF 393 renal) was > 100 µM and the TGI (UO-31 renal) was > 100 µM. The TGI (SNB-78 CNS) was > 100 µM, the TGI (K-562 leukemia) was > 100 µM and the TGI (DLD-1 colon) was > 100 µM. The TGI (SNB-75 CNS) was > 100 µM, the TGI (HOP-62 NSCLC) was > 100 µM and the TGI (HL-60(TB) leukemia) was > 100 µM. For the same compound, the TGI (A549 NSCLC) was > 100 µM, the TGI (HOP-18 NSCLC) was > 100 µM and the TGI (CCRF-CEM leukemia) was > 100 µM. For the same compound, the TGI (SK-OV-3 ovarian) was > 100 µM, the TGI (M19-MEL melanoma) was > 100 µM and the TGI (SN12C renal) was > 100 µM. For the same compound, the TGI (HCC-2998 colon) was 56.8 µM, the TGI (NCI-H460 lung) was > 100 µM and the TGI (HT29 colon) was > 100 µM. For the same compound, the TGI (SF-268 CNS) was > 100 µM, the TGI (SF-295 CNS) was > 100 µM and the TGI (UACC-62 melanoma) was > 100 µM. The TGI (HCT-116 colon) was > 100 µM, the TGI (UACC-257 melanoma) was > 100 µM and the TGI (MOLT-4 leukemia) was > 100 µM. The TGI (TK-10 renal) was > 100 µM, the TGI (RPMI-8226 leukemia) was > 100 µM and the TGI (COLO 205 colon) was > 100 µM. For the same compound, the TGI (HCT-15 colon) was 82.3 µM, the TGI (786-0 renal) was > 100 µM and the TGI (HOP-92 NSCLC) was 60.1 µM. For the same compound, the TGI (MALME-3M melanoma) was > 100 µM, the TGI (EKVX NSCLC) was > 100 µM and the TGI (M14 melanoma) was > 100 µM. For the same compound, the TGI (CAKI-1 renal) was > 100 µM, the TGI (U251 CNS) was 71.5 µM and the TGI (OVCAR-4 ovarian) was > 100 µM. The TGI (SK-MEL-2 melanoma) was > 100 µM, the TGI (SNB-19 CNS) was > 100 µM and the TGI (LOX IMVI melanoma) was 62 µM. For the same compound, the TGI (SF-539 CNS) was > 100 µM, the TGI (ACHN renal) was > 100 µM and the TGI (KM20L2 colon) was > 100 µM. For the same compound, the TGI (OVCAR-3 ovarian) was 54.1 µM, the TGI (OVCAR-8 ovarian) was > 100 µM and the TGI (DMS 273 small cell lung) was > 100 µM. For the same compound, the TGI (LXFL 529 NSCLC) was > 100 µM, the TGI (DMS 114 small cell lung) was 83.4 µM and the TGI (SK-MEL-5 melanoma) was > 100 µM. The TGI (RXF-631 renal) was 71.6 µM, the TGI (KM12 colon) was > 100 µM and the TGI (SW-620 colon) was > 100 µM. For the same compound, the TGI (IGROV1 ovarian) was > 100 µM and the TGI (XF 498 CNS) was > 100 µM.
Work on `CN(C)CCCNc1ccc2ncn3c4ccc(O)cc4c(=O)c1c23` yielded a TGI (DU-145 prostate) of 21.2 µM, a TGI (OVCAR-5 ovarian) of 15.7 µM and a TGI (RXF 393 renal) of 2.91 µM. It also gave a TGI (UO-31 renal) of 11.4 µM, a TGI (SNB-78 CNS) of 26.6 µM and a TGI (K-562 leukemia) of 28 µM. The TGI (T-47D breast) was 30.5 µM, the TGI (MDA-MB-231 breast) was 21.7 µM and the TGI (DLD-1 colon) was 16.5 µM. The TGI (SNB-75 CNS) was 11.7 µM, the TGI (MDA-N) was 17.6 µM and the TGI (HOP-62 NSCLC) was 8.97 µM. It also gave a TGI (HL-60(TB) leukemia) of 13.1 µM, a TGI (A549 NSCLC) of 5.82 µM and a TGI (SK-MEL-28 melanoma) of 18.1 µM. The TGI (HOP-18 NSCLC) was 27.4 µM, the TGI (CCRF-CEM leukemia) was 32.6 µM and the TGI (SK-OV-3 ovarian) was 15.1 µM. The TGI (NCI-H23 lung) was 10.7 µM, the TGI (BT-549 breast) was 31.9 µM and the TGI (M19-MEL melanoma) was 15.3 µM. The TGI (SN12C renal) was 16.2 µM, the TGI (HCC-2998 colon) was 18.1 µM and the TGI (NCI-H460 lung) was 4.56 µM. It also gave a TGI (HT29 colon) of 12.9 µM, a TGI (SF-268 CNS) of 13.5 µM and a TGI (SF-295 CNS) of 15.6 µM. The TGI (UACC-62 melanoma) was 13.5 µM, the TGI (HCT-116 colon) was 11.2 µM and the TGI (MCF7 breast) was 1.27 µM. The TGI (UACC-257 melanoma) was 24.5 µM, the TGI (MOLT-4 leukemia) was 10.1 µM and the TGI (TK-10 renal) was 19.8 µM. It also gave a TGI (RPMI-8226 leukemia) of 18.2 µM, a TGI (PC-3 prostate) of 14.4 µM and a TGI (COLO 205 colon) of 15.3 µM. For the same compound, the TGI (HCT-15 colon) was 16.8 µM, the TGI (786-0 renal) was 14.7 µM and the TGI (HOP-92 NSCLC) was 15.3 µM. It also gave a TGI (SR leukemia) of 1.55 µM, a TGI (MALME-3M melanoma) of 16 µM and a TGI (MDA-MB-435) of 19.3 µM. For the same compound, the TGI (A498 renal) was 7.6 µM, the TGI (EKVX NSCLC) was 16.6 µM and the TGI (NCI-H226 lung) was 3.59 µM. The TGI (HS 578T breast) was 13.6 µM, the TGI (M14 melanoma) was 16.4 µM and the TGI (CAKI-1 renal) was 1.59 µM. The TGI (U251 CNS) was 4.6 µM, the TGI (OVCAR-4 ovarian) was 8.01 µM and the TGI (SK-MEL-2 melanoma) was 19.6 µM. For the same compound, the TGI (SNB-19 CNS) was 20.1 µM, the TGI (LOX IMVI melanoma) was 3.13 µM and the TGI (SF-539 CNS) was 15.7 µM. It also gave a TGI (ACHN renal) of 4.04 µM, a TGI (KM20L2 colon) of 14.4 µM and a TGI (OVCAR-3 ovarian) of 17.6 µM. For the same compound, the TGI (OVCAR-8 ovarian) was 11.7 µM, the TGI (DMS 273 small cell lung) was 12.1 µM and the TGI (LXFL 529 NSCLC) was 17.7 µM. It also gave a TGI (DMS 114 small cell lung) of 16.7 µM, a TGI (SK-MEL-5 melanoma) of 9.57 µM and a TGI (RXF-631 renal) of 12.2 µM. The TGI (NCI/ADR-RES ovarian) was > 100 µM, the TGI (KM12 colon) was 16.7 µM and the TGI (SW-620 colon) was 16.4 µM. For the same compound, the TGI (NCI-H522 lung) was 3.16 µM, the TGI (IGROV1 ovarian) was 10.5 µM and the TGI (XF 498 CNS) was 19.6 µM.
